Data on 16 compounds can be found in patent US8669251B2, “8-fluorophthalazin-1(2H)-one compounds” (Genentech, Inc., priority 2011, dated 2014).

For the first assay, the system named is production of CD69 by B lymphocytes in human whole blood. Nature of the assay: CD69 Whole Blood Assay (CD69 Hu Blood FACS). The class given is cell-based. The note with it: human whole blood activated with goat F(ab')2 anti-human IgM, 20 hours; CD69 on CD20 positive cells by FACS; Table 1. The text has this:
A CD69 Whole Blood Assay can be conducted on Formula I compounds to determine the ability of compounds to inhibit the production of CD69 by B lymphocytes in human whole blood activated by crosslinking surface IgM with goat F(ab′)2 anti-human IgM (Example 907). CD69 is a type II C-type lectin involved in lymphocyte migration and cytokine secretion. CD69 expression represents one of the earliest available indicators of leukocyte activation and its rapid induction occurs through transcriptional activation (Vazquez et al (2009) Jour. of Immunology Published Oct. 19, 2009, doi:10.4049/jimmunol.0900839). Concentration-dependent inhibition of antigen receptor stimulation by selective Btk inhibitors induces cell surface expression of the lymphocyte activation marker CD69 (Honigberg et al (2010) Proc. Natl. Acad. Sci. 107(29):13075-13080). Thus, CD69 inhibition by selective Btk inhibitors may be correlated with therapeutic efficacy of certain B-cell disorders.
Human blood is obtained from healthy volunteers, with the following restrictions: 1 week drug-free, non-smokers. Blood (approximately 20 mls to test 8 compounds) is collected by venipuncture into Vacutainer® (Becton, Dickinson and Co.) tubes with sodium heparin.
Solutions of Formula I and II compounds at 10 mM in DMSO are diluted 1:10 in 100% DMSO, then are diluted by three-fold serial dilutions in 100% DMSO for a ten point dose-response curve. The compounds are further diluted 1:10 in PBS and then an aliquot of 5.5 μl of each compound is added in duplicate to a 2 ml 96-well plate; 5.5 μl of 10% DMSO in PBS is added as control and no-stimulus wells. Human whole blood —HWB (100 μl) is added to each well. After mixing the plates are incubated at 37° C., 5% CO2, 100% humidity for 30 minutes. Goat F(ab′)2 anti-human IgM (10 μl of a 500 μg/ml solution, 50 μg/ml final) is added to each well (except the no-stimulus wells) with mixing and the plates are incubated for an additional 20 hours. At the end of the 20 hour incubation, samples are incubated with fluorescent labeled antibodies for 30 minutes, at 37° C., 5% CO2, 100% humidity. Include induced control, unstained and single stains for compensation adjustments and initial voltage settings. Samples are then lysed with PharM Lyse™ (BD Biosciences Pharmingen) according to the manufacturer's instructions. Samples are then transferred to a 96 well plate suitable to be run on the BD Biosciences HTS 96 well system on the LSRII machine. Data acquired and Mean Fluorescence Intensity values were obtained using BD Biosciences DIVA Software. Results are initially analyzed by FACS analysis software (Flow Jo). […] The inhibitory concentration (IC50, IC70, IC90) values are calculated by Prism version 5, using a nonlinear regression curve fit.
For `CN1CCN(c2ccc(Nc3cc(-c4cccc(-n5ncc6cc(C(C)(C)C)cc(F)c6c5=O)c4CO)cn(C)c3=O)nc2)CC1` [Compound 101, 6-tert-butyl-8-fluoro-2-(2-(hydroxymethyl)-3-(1-methyl-5-(5-(4-methylpiperazin-1-yl)pyridin-2-yl-amino)-6-oxo-1,6-dihydropyridin-3-yl)phenyl)phthalazin-1(2H)-one], the CD69 Hu Blood FACS (IC70) turned out to be 0.024 µM.
On the same count and under the same terms, the figure for `Cn1cc(-c2cc(F)cc(-n3ncc4cc(C(C)(C)C)cc(F)c4c3=O)c2CO)cc(Nc2ccc(N3CCN(C4COC4)CC3)cn2)c1=O` [Compound 102, 6-tert-butyl-8-fluoro-2-(5-fluoro-2-(hydroxymethyl)-3-(1-methyl-5-(5-(4-(oxetan-3-yl)piperazin-1-yl)pyridin-2-ylamino)-6-oxo-1,6-dihydropyridin-3-yl)phenyl)phthalazin-1(2H)-one] is 0.012 µM.
Still for that read-out and setting: the figure for `Cn1cc(-c2ccnc(-n3ncc4cc(C(C)(C)C)cc(F)c4c3=O)c2CO)cc(Nc2ccc(N3CCN(C4COC4)CC3)cn2)c1=O` [Compound 103, 6-tert-butyl-8-fluoro-2-(3-(hydroxymethyl)-4-(1-methyl-5-(5-(4-(oxetan-3-yl)piperazin-1-yl)pyridin-2-ylamino)-6-oxo-1,6dihydropyridin-3-yl)pyridin-2-yl)phthalazin-1(2H)-one] is 0.013 µM; for `C[C@H]1CN(C2COC2)CCN1c1ccc(Nc2cc(-c3cc(F)cc(-n4ncc5cc(C(C)(C)C)cc(F)c5c4=O)c3CO)cn(C)c2=O)nc1` [Compound 104, (S)-6-tert-butyl-8-fluoro-2-(5-fluoro-2-(hydroxymethyl)-3-(1-methyl-5-(5-(2-methyl-4-(oxetan-3-yl)piperazin-1-yl)pyridin-2-ylamino)-6-oxo-1,6-dihydropyridin-3-yl)phenyl)phthalazin-1(2H)-one] it is 0.0329 µM; for `C[C@H]1CN(C2COC2)CCN1c1ccc(Nc2cc(-c3ccnc(-n4ncc5cc(C(C)(C)C)cc(F)c5c4=O)c3CO)cn(C)c2=O)nc1` [Compound 105, (S)-6-tert-butyl-8-fluoro-2-(3-(hydroxymethyl)-4-(1-methyl-5-(5-(2-methyl-4-(oxetan-3-yl)piperazin-1-yl)pyridin-2-ylamino)-6-oxo-1,6-dihydropyridin-3-yl)pyridin-2-yl)phthalazin-1(2H)-one] it is 0.006 µM.
Still for that read-out and setting: the figure for `C[C@@H]1CN(C2COC2)CCN1c1ccc(Nc2cc(-c3cc(F)cc(-n4ncc5cc(C(C)(C)C)cc(F)c5c4=O)c3CO)cn(C)c2=O)nc1` [Compound 107, (R)-6-tert-butyl-8-fluoro-2-(5-fluoro-2-(hydroxymethyl)-3-(1-methyl-5-(5-(2-methyl-4-(oxetan-3-yl)piperazin-1-yl)pyridin-2-ylamino)-6-oxo-1,6-dihydropyridin-3-yl)phenyl)phthalazin-1(2H)-one] is 0.0263 µM; for `C[C@H]1CN(C2COC2)CCN1c1ccc(Nc2cc(-c3cncc(-n4ncc5cc(C(C)(C)C)cc(F)c5c4=O)c3CO)cn(C)c2=O)nc1` [Compound 109, (S)-6-tert-butyl-8-fluoro-2-(4-(hydroxymethyl)-5-(1-methyl-5-(5-(2-methyl-4-(oxetan-3-yl)piperazin-1-yl)pyridin-2-ylamino)-6-oxo-1,6-dihydropyridin-3-yl)pyridin-3-yl)phthalazin-1(2H)-one] it is 0.012 µM.
The compound `C[C@@H]1CN(c2ccc(Nc3cc(-c4ccnc(-n5ncc6cc(C(C)(C)C)cc(F)c6c5=O)c4CO)cn(C)c3=O)nc2)[C@@H](C)CN1C1COC1` [Compound 110, 6-tert-butyl-2-(4-(5-(5-((2S,5R)-2,5-dimethyl-4-(oxetan-3-yl)piperazin-1-yl)pyridin-2-ylamino)-1-methyl-6-oxo-1,6-dihydropyridin-3-yl)-3-(hydroxymethyl)pyridin-2-yl)-8-fluorophthalazin-1(2H)-one] returned a CD69 Hu Blood FACS (IC70) of 0.0059 µM.
Same read-out and setting: the figure for `CC[C@H]1CN(C2COC2)CCN1c1ccc(Nc2cc(-c3cc(F)cc(-n4ncc5cc(C(C)(C)C)cc(F)c5c4=O)c3CO)cn(C)c2=O)nc1` [Compound 111, (S)-6-tert-butyl-2-(3-(5-(5-(2-ethyl-4-(oxetan-3-yl)piperazin-1-yl)pyridin-2-ylamino)-1-methyl-6-oxo-1,6-dihydropyridin-3-yl)-5-fluoro-2-(hydroxymethyl)phenyl)-8-fluorophthalazin-1(2H)-one] is 0.0374 µM.
The compound `CC[C@H]1CN(C2COC2)CCN1c1ccc(Nc2cc(-c3ccnc(-n4ncc5cc(C(C)(C)C)cc(F)c5c4=O)c3CO)cn(C)c2=O)nc1` [Compound 112, (S)-6-tert-butyl-2-(4-(5-(5-(2-ethyl-4-(oxetan-3-yl)piperazin-1-yl)pyridin-2-ylamino)-1-methyl-6-oxo-1,6-dihydropyridin-3-yl)-3-(hydroxymethyl)pyridin-2-yl)-8-fluorophthalazin-1(2H)-one] displayed a CD69 Hu Blood FACS (IC70) of 0.0329 µM.

Staying with this assay, now noted: human whole blood activated with goat F(ab')2 anti-human IgM, 20 hours; CD69 on CD20 positive cells by FACS; Table 2.
In turn, `Cn1cc(-c2ccnc(-n3ncc4cc(C(C)(C)C)cc(F)c4c3=O)c2CO)cc(Nc2ccncn2)c1=O` [Compound 113, 6-tert-butyl-8-fluoro-2-[3-(hydroxymethyl)-4-[1-methyl-6-oxo-5-(pyrimidin-4-ylamino)-3-pyridyl]-2-pyridyl]phthalazin-1-one] registered a CD69 Hu Blood FACS (IC70) of 0.0823 µM.
Still for that read-out and setting: the figure for `Cc1nccc(Nc2cc(-c3ccnc(-n4ncc5cc(C(C)(C)C)cc(F)c5c4=O)c3CO)cn(C)c2=O)n1` [Compound 114, 6-tert-butyl-8-fluoro-2-[3-(hydroxymethyl)-4-[1-methyl-5-[(2-methylpyrimidin-4-yl)amino]-6-oxo-3-pyridyl]-2-pyridyl]phthalazin-1-one] is 0.0114 µM.
`CN1CCc2nc(Nc3cc(-c4ccnc(-n5ncc6cc(C(C)(C)C)cc(F)c6c5=O)c4CO)cn(C)c3=O)sc2C1` [Compound 115, 6-tert-butyl-8-fluoro-2-[3-(hydroxymethyl)-4-[1-methyl-5-[(5-methyl-6,7-dihydro-4H-thiazolo[5,4-c]pyridin-2-yl)amino]-6-oxo-3-pyridyl]-2-pyridyl]phthalazin-1-one] had a CD69 Hu Blood FACS (IC70) of 0.0732 µM.
Same read-out and setting: the figure for `Cn1nc(-c2ccnc(-n3ncc4cc(C(C)(C)C)cc(F)c4c3=O)c2CO)cc(Nc2ccc(C(=O)N3CCOCC3)cn2)c1=O` [Compound 116, 6-tert-butyl-8-fluoro-2-[3-(hydroxymethyl)-4-[1-methyl-5-[[5-(morpholine-4-carbonyl)-2-pyridyl]amino]-6-oxo-pyridazin-3-yl]-2-pyridyl]phthalazin-1-one] is 0.0935 µM.
The same measure, in the same setting: the figure for `C[C@H]1CN(C2COC2)CCN1c1ccc(Nc2cc(-c3ccnc(-n4ncc5cc(C(C)(C)C)cc(F)c5c4=O)c3CO)nn(C)c2=O)nc1` [Compound 117, 6-tert-butyl-8-fluoro-2-[3-(hydroxymethyl)-4-[1-methyl-5-[[5-[(2S)-2-methyl-4-(oxetan-3-yl)piperazin-1-yl]-2-pyridyl]amino]-6-oxo-pyridazin-3-yl]-2-pyridyl]phthalazin-1-one] is 0.0165 µM.
The same measure, in the same setting: for `CCn1nc(Nc2cc(-c3ccnc(-n4ncc5cc(C(C)(C)C)cc(F)c5c4=O)c3CO)cn(C)c2=O)cc1C` [Compound 118, 6-tert-butyl-2-[4-[5-[(1-ethyl-5-methyl-pyrazol-3-yl)amino]-1-methyl-6-oxo-3-pyridyl]-3-(hydroxymethyl)-2-pyridyl]-8-fluoro-phthalazin-1-one] the value was 0.112 µM.
